From PubChem BioAssay (NCI)
Where “and” joins values, the source holds several entries; their conditions need not be identical. Equal values may be shown once.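 These data come from cells grown in 96-well plates and exposed to compound for 48 hours at five concentrations. At the GI50, growth is halved. TGI denotes the concentration required for complete inhibition of growth.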

Legend:
Assay in all cases: NCI-60 cell line screen, 48 h
ACHN renal = tested on: ACHN renal
HCC-2998 colon = tested on: HCC-2998 colon
KM12 colon = tested on: KM12 colon
NCI-H226 lung = tested on: NCI-H226 lung
PC-3 prostate = tested on: PC-3 prostate
SK-MEL-2 melanoma = tested on: SK-MEL-2 melanoma
SNB-75 CNS = tested on: SNB-75 CNS
UO-31 renal = tested on: UO-31 renal

SMILES	TGI (ACHN renal)	TGI (HCC-2998 colon)	TGI (KM12 colon)	TGI (NCI-H226 lung)	TGI (PC-3 prostate)	TGI (SK-MEL-2 melanoma)	TGI (SNB-75 CNS)	TGI (UO-31 renal)	GI50 (ACHN renal)	GI50 (HCC-2998 colon)	GI50 (KM12 colon)	GI50 (NCI-H226 lung)	GI50 (PC-3 prostate)	GI50 (SK-MEL-2 melanoma)	GI50 (SNB-75 CNS)	GI50 (UO-31 renal)
CSC(=S)OC1CC(n2cnc3c(NC(=O)c4ccccc4)ncnc32)OC1CO[Si](C)(C)C(C)(C)C (stereo not drawn)	> 56.2 µM	> 31.6 µM	41.6 µM	> 56.2 µM	> 46.4 µM	53.4 µM	52 µM	28 µM	–	–	–	–	–	–	–	–
Cc1cc2c(C(N)=O)c(N)n(-c3c(C)ccc(O)c3C)c2nc1C	10.5 µM	11.7 µM	> 100 µM	4.89 µM	> 100 µM	21.2 µM	8.3 µM	14.9 µM	1.84 µM	3.21 µM	4.54 µM	0.569 µM	32.7 µM	3.59 µM	1.05 µM	3.18 µM
O=C(Nc1cccc(-c2ccc(Cl)c(C(F)(F)F)c2)c1)C1CCN(Cc2cccc3cccnc23)CC1	3.14 µM	2.85 µM	3.43 µM	3.89 µM	2.93 µM	3.85 µM	2.71 µM	2.52 µM	1.76 µM	1.43 µM	1.8 µM	1.88 µM	1.41 µM	1.99 µM	1.39 µM	1.25 µM
N#Cc1c(N)nc(N2CCOCC2)c(C#N)c1-c1ccccn1	> 100 µM	> 100 µM	> 100 µM	> 100 µM	> 100 µM	> 100 µM	> 100 µM	> 100 µM	> 100 µM	> 82 µM	> 100 µM	–	> 100 µM	> 100 µM	> 88.5 µM	> 100 µM
O=C(Nc1cccc(Cl)c1)c1cccc(NC2=C(Cl)C(=O)N(Cc3ccccc3)C2=O)c1	> 100 µM	62.4 µM	80.4 µM	> 100 µM	93.1 µM	68.6 µM	> 100 µM	> 100 µM	87.4 µM	19.8 µM	28.2 µM	22.4 µM	21.9 µM	26.7 µM	> 100 µM	36.4 µM
CN1CCN(c2ccc(NC(=O)c3cncnc3Nc3ccc(OCc4ccccn4)c(Cl)c3)cc2)CC1	7.87 µM	9.15 µM	9.63 µM	13 µM	12 µM	11 µM	9.23 µM	9.97 µM	3.77 µM	4.22 µM	4.16 µM	5.42 µM	3.8 µM	4.74 µM	4.58 µM	3.89 µM
O=C(NO)[C@@H](Cc1ccccc1)NS(=O)(=O)c1ccc(-c2ccccc2)cc1	> 25 µM	> 25 µM	> 25 µM	> 25 µM	> 25 µM	> 25 µM	> 25 µM	> 25 µM	12.2 µM	> 25 µM	> 25 µM	> 25 µM	7.97 µM	> 25 µM	> 25 µM	13.2 µM
[N-]=[N+]=NCCCn1c2c(c3ccc([N+](=O)[O-])cc3c1=O)C(=O)c1cc(F)ccc1-2	1.55 µM	> 100 µM	> 26.2 µM	> 46.8 µM	43.2 µM	> 75.1 µM	29 µM	12.6 µM	0.269 µM	14.5 µM	2.13 µM	2.26 µM	1.25 µM	9.24 µM	2.13 µM	0.807 µM
COc1cc(-c2csc(NC(=O)Nc3ccc(C(F)(F)F)cc3)n2)cc(OC)c1OC	6.13 µM	9.34 µM	7.48 µM	8.4 µM	8.2 µM	5.81 µM	5.52 µM	5.29 µM	2.11 µM	2.71 µM	2.09 µM	2.35 µM	1.84 µM	2.43 µM	1.43 µM	1.77 µM
CCc1ccc(C(=Nc2ccc(N(C)C(=O)CN3CCN(C)CC3)cc2)c2c(O)[nH]c3ccc(C(=O)OC)cc23)cc1	1.43 µM	1.95 µM	1.4 µM	2.71 µM	1.61 µM	2.83 µM	1.52 µM	1.36 µM	0.332 µM	0.587 µM	0.0387 µM	0.977 µM	0.292 µM	1.23 µM	0.17 µM	0.287 µM
Cc1ccc(C(=O)/C(=C\c2ccc([N+](=O)[O-])cc2)S(=O)Cc2ccc(Cl)cc2)cc1 (stereo not drawn)	4.98 µM	3.36 µM	6.2 µM	11.5 µM	3.12 µM	4.15 µM	3.25 µM	2.78 µM	2.09 µM	1.82 µM	2.33 µM	2.81 µM	1.56 µM	1.96 µM	1.53 µM	1.41 µM
Cc1cc(-c2ccccn2)cc(C)c1/C=C/c1cncc(-c2nn[nH]n2)c1	> 25 µM	> 25 µM	> 25 µM	> 25 µM	> 25 µM	> 25 µM	> 25 µM	> 25 µM	> 25 µM	> 25 µM	> 25 µM	> 25 µM	> 25 µM	> 25 µM	> 25 µM	> 25 µM
O=C1/C(=C/c2ccc(Cl)cc2)CCC/C1=C\c1ccc(Cl)cc1	> 100 µM	3.19 µM	3.75 µM	> 100 µM	> 100 µM	> 100 µM	> 100 µM	> 100 µM	6.83 µM	1.75 µM	1.9 µM	5.18 µM	5.46 µM	> 100 µM	> 100 µM	10.8 µM
CC1(N)CCN(c2cnc(-c3cccc(Cl)c3Cl)c(N)n2)CC1	> 100 µM	77.6 µM	> 100 µM	> 100 µM	> 100 µM	46.4 µM	27 µM	17.9 µM	10.9 µM	22 µM	7.13 µM	3.2 µM	26.7 µM	20.1 µM	7.24 µM	3.3 µM
CCOC(=O)C#Cc1c(C(=O)OCC)nnn1Cc1ccc([N+](=O)[O-])cc1	3.45 µM	32.2 µM	24.1 µM	3.33 µM	22.4 µM	26.3 µM	20.5 µM	3.78 µM	1.89 µM	18.3 µM	10.2 µM	1.72 µM	10.2 µM	13 µM	6.29 µM	1.75 µM
CCn1c(-c2nonc2N)nc2c(C#CC(C)(C)O)ncc(OC[C@H]3CCCNC3)c21	> 100 µM	> 100 µM	63.8 µM	52.2 µM	70.8 µM	23 µM	1.54 µM	> 100 µM	25.7 µM	21.2 µM	4.54 µM	21.1 µM	10.4 µM	7.57 µM	0.0584 µM	> 38.7 µM
NS(=O)(=O)NCCNc1nonc1C(=Nc1ccc(F)c(Br)c1)NO	> 100 µM	77.5 µM	> 100 µM	> 100 µM	> 100 µM	97 µM	> 100 µM	> 100 µM	31.2 µM	27.4 µM	34.8 µM	47.7 µM	31.8 µM	27.8 µM	15.2 µM	24.8 µM
Oc1ccc(C2c3ccccc3Oc3ccccc32)c2cccnc12	9.58 µM	> 100 µM	> 100 µM	7.92 µM	> 100 µM	69.5 µM	> 100 µM	19.7 µM	0.845 µM	1.89 µM	1.71 µM	1.23 µM	1.9 µM	2.31 µM	6.96 µM	1.21 µM
CC(=O)O[C@H]1[C@@H]2OC(=O)C(CSc3ccccc3)[C@@H]2C[C@H]2O[C@]2(C)CC/C=C(\C)CCC[C@@H]1C (stereo partly drawn)	3.82 µM	16.3 µM	14 µM	18 µM	11.1 µM	8.69 µM	11.6 µM	5.26 µM	1.8 µM	4.7 µM	3.58 µM	4.69 µM	2.53 µM	3.11 µM	2.98 µM	1.96 µM
O=C1c2ccccc2-c2c1c1c(O)cccc1n2Cc1ccccn1	> 100 µM	> 100 µM	> 100 µM	65.3 µM	> 100 µM	> 100 µM	> 100 µM	> 100 µM	25.8 µM	70.9 µM	> 100 µM	12.8 µM	43.8 µM	> 100 µM	> 100 µM	> 100 µM
Cc1ccc(NC(=O)CSc2nnc3n(Cc4ccccc4)c(=O)c4c(C)c(C(N)=O)sc4n23)cc1	51 µM	> 100 µM	> 100 µM	> 100 µM	> 100 µM	43.3 µM	23.8 µM	> 100 µM	19.9 µM	> 100 µM	> 100 µM	27.2 µM	> 100 µM	16 µM	5.72 µM	> 100 µM
Cc1ccc(NS(=O)(=O)c2cccc(C#N)c2)c2[nH]cc(C#N)c12	> 96.7 µM and 98.3 µM	> 100 µM	> 100 µM	> 96.4 µM	98.4 µM and > 100 µM	59.7 µM and 52.4 µM	52.3 µM and 29.4 µM	63.8 µM and 56.3 µM	12.6 µM and 16.3 µM	25.1 µM	> 51.5 µM and 23.2 µM	22.5 µM and 25.5 µM	12 µM and 19 µM	22.5 µM and 15.1 µM	6.51 µM and 7.05 µM	14.7 µM and 9.17 µM
O=C(N/N=C/c1ccc(O)cc1O)c1cccc(Nc2ccnc(C(F)(F)F)c2)c1	29.6 µM	18.1 µM	16.2 µM	9.44 µM	34.2 µM	27.1 µM	52.5 µM	33.6 µM	1.25 µM	0.778 µM	2.73 µM	1.21 µM	3.01 µM	7.39 µM	11.3 µM	1.44 µM
CC(CN(C)C)Oc1ccccc1NC1=C(Cl)C(=O)C(Nc2ccccc2OC(C)CN(C)C)=C(Cl)C1=O (stereo not drawn)	0.312 µM	2.91 µM	2.57 µM	2.91 µM	2.86 µM	2.89 µM	3.01 µM	0.853 µM	0.174 µM	1.29 µM	1.2 µM	1.41 µM	1.33 µM	1.34 µM	1.44 µM	0.437 µM
O=C1OC(=O)C2CCCC3CCCC1C32 (stereo not drawn)	> 100 µM	> 100 µM	> 100 µM	> 100 µM	> 100 µM	> 100 µM	> 100 µM	> 100 µM	–	–	–	–	–	–	–	–
CCOC(=O)c1cc(-c2ccccc2)[nH]c1N/N=C/c1ccc(Cl)cc1	> 100 µM	> 100 µM	> 100 µM	> 100 µM	> 100 µM	> 100 µM	> 100 µM	> 100 µM	> 100 µM	54.7 µM	> 100 µM	> 100 µM	21.8 µM	62.6 µM	> 100 µM	73.6 µM
CCN(CC)C(=S)SCN1C(=O)c2ccccc2S1(=O)=O	> 100 µM	> 78 µM	> 100 µM	> 100 µM	> 100 µM	> 100 µM	> 91.5 µM	> 100 µM	64.6 µM	40.8 µM	14.4 µM	65.5 µM	4.9 µM	> 94.4 µM	46.7 µM	53.9 µM
OCCNc1nc(Nc2ccc(Cl)c(Cl)c2)nc2ccccc12	18.3 µM	6.85 µM	16.2 µM	34.2 µM	16.6 µM	33.1 µM	18.7 µM	17.9 µM	4.8 µM	2.52 µM	4.19 µM	12.9 µM	4.47 µM	16.4 µM	4.79 µM	4.23 µM
C/C(O)=C(\C#N)C(=O)Nc1ccc(C(F)(F)F)cc1	> 100 µM	> 100 µM	> 100 µM	> 100 µM	> 100 µM	> 100 µM	> 100 µM	> 100 µM	45.7 µM	45.2 µM	23.9 µM	98 µM	7.97 µM	73.2 µM	> 100 µM	18.1 µM
CO/N=C(\COc1ccc2oc(-c3ccccc3)cc(=O)c2c1)c1ccc(OC)cc1	51.9 µM	48.6 µM	> 100 µM	> 100 µM	98.5 µM	> 100 µM	54.5 µM	58.5 µM	23.4 µM	21.4 µM	27.1 µM	50.1 µM	29.9 µM	31 µM	25.4 µM	22.8 µM
